The values that follow come from US20030055065A1, “Tricyclic amide and urea compounds useful for inhibition of G-protein function and for treatment of proliferative diseases” (priority 1993, published 2003).

Several values for one entry are separate records, joined by “and”; a condition that tells them apart may be missing. Identical values can stand only once. Like-named read-outs stand apart in the source and are kept apart here.

For assay [1], the target named is T1, farnesyl protein transferase (FPT), partially purified from rat brain (Rattus norvegicus, UniProt Q02293+Q04631).
T1 construct: were partially purified from rat brain by ammonium sulfate fractionation followed by Q-Sepharose
As to the kind of experiment: Inhibition of farnesyl protein transferase (transfer of [3H]farnesyl to Ras-CVLS). Type of assay: biochemical. The method in brief:
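Partially purified farnesyl protein transferase with His6-tagged val12-Ha-Ras-CVLS substrate and [3H]farnesyl pyrophosphate, 30 min at room temperature. Stopped with SDS/TCA, precipitated Ras collected on GF/C filters; percent inhibition relative to DMSO vehicle control.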

Assay [2] relates to Ras-CVLS processing in COS monkey kidney cells. As to the kind of experiment: COS cell assay: Ras-CVLS processing (Western blot). The following applies: Primates, COS, COS cells; read-out: Inhibition of Ras Processing IC50. Type of assay: cell-based. How it is done: 2. […] Effect of farnesyl protein transferase inhibitors on Ras processing and on disordered cell growth induced by transforming Ras. COS monkey kidney cells were transfected by electroporation with the plasmid pSV-SPORT (Gibco/BRL) containing a cDNA insert encoding either Ras-CVLS or Ras-CVLL, leading to transient overexpression of a Ras substrate for either farnesyl protein transferase or geranylgeranyl protein transferase I, respectively (see above). […] After 24 hours, media was removed and fresh media containing the appropriate drugs was re-added. 48 hours after electroporation cells were examined under the microscope to monitor disordered cell growth induced by transforming Ras. Cells expressing transforming Ras become more rounded and refractile and overgrow the monolayer, reminiscent of the transformed phenotype. […] Cells were lysed by homogenization and cell debris was removed by centrifugation at 2000×g for 10 min. Cellular protein was precipitated by addition of ice-cold trichloroacetic acid and redissolved in 100 μl of SDS-electrophoresis sample buffer. […] Proteins resolved on the gels were electroblotted onto nitrocellulose membranes for immunodetection. […] E., et al., (1982), Monoclonal antibodies to the p21 products of the transforming gene of Harvey murine sarcome virus and of the cellular ras gene family, J. Virol. 43: 294-304), in PBS containing 1% fetal calf serum for one hour at room temperature. After washing, membranes were incubated for one hour at room temperature with a 1:5000 dilution of secondary antibody, rabbit anti-rat IgG conjugated to horseradish peroxidase, in PBS containing 1% fetal calf serum.

For assay [3], the system named is Normal human HEPM fibroblasts. Description: Cell Mat Assay: density of mat cells (mIC50). Type of assay: cell-based. How it is done:
(§1) Compound-induced colony inhibition was assayed by addition of serial dilutions of compound directly to the growth medium 24 h after tumor cell planting, and incubating cells for an additional 14 d to allow colony formation. Assays were terminated by rinsing monolayers twice with phosphate-buffered saline (PBS), fixing the monolayers with a 1% glutaraldehyde solution in PBS, then visualizing tumor cells by staining with X-Gal (Price, J., et al., Lineage analysis in the vertebrate nervous system by retrovirus-mediated gene transfer, Proc. Natl. Acad. Sci.84, 156-160(1987)). […] Both IC50 values were obtained by determining the density of tumor cells and mat cells by visual inspection and enumeration of cells per colony and the number of colonies under the microscope.

For assay [4], the system named is T24-BAG4 human bladder carcinoma cells expressing an activated H-ras gene. As to the kind of experiment: Cell Mat Assay: tumor cell colony inhibition (tIC50). The following applies: inhibition of tumor cell growth. Type of assay: cell-based. How it is done:
as §1

Where [5] appears, read: Ras-CVLS farnesylation, partially purified rat brain FPT, read-out: FPT IC50.
Where [6] appears, read: FPT IC50, Ras-CVLS farnesylation, partially purified rat brain FPT.
Where [7] appears, read: enzyme inhibition, read-out: FPT IC50.

As a reminder, the IC50 is the concentration at which inhibition is half-maximal. As a reminder, the inhibition is the share of the control response that was lost under treatment.

T1 sequence (Q02293 whole entry, one chain of several): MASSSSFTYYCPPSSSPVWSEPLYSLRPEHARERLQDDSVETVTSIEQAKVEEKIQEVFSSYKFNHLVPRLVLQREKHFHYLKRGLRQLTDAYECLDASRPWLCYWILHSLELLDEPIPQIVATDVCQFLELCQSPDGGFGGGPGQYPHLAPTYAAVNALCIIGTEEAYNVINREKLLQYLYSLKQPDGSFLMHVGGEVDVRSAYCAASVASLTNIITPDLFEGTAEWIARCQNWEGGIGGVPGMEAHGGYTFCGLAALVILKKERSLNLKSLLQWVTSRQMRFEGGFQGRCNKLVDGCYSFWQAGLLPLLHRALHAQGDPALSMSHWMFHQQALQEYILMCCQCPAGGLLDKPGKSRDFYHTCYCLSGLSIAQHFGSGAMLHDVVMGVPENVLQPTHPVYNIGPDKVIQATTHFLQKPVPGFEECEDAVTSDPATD

For `O=C(Cc1ccc[n+]([O-])c1)N1CCN(C2c3ccc(Cl)cc3CCc3ccc[n+]([O-])c32)CC1` (stereo not shown) [185 (5.61)], the IC50 is 3.8 µM in assay [1] (setting [5]) and over 20 µM in assay [2].
On to `O=C(Cc1cccnc1)N1CCN(C2c3ccc(Cl)cc3CCc3cccnc32)CC1` (stereo not shown) [Example 78], for which the IC50 is 1 µM and 0.42 µM in assay [1] (setting [6]); 2.19 µM and 0.53 µM and 0.74 µM and 0.76 µM and 0.97 µM in assay [1] (FPT IC50, enzyme inhibition); under 4.6 µM in assay [2].
Regarding `CS(=O)(=O)OCC(C(=O)N1CCC(=C2c3ccc(Cl)cc3CCc3cccnc32)CC1)c1ccccc1` (stereo not shown) [Example 83, 8-chloro-11-[1-(2-methanesulfonyl-oxy-1-phenylethylcarbonyl)-4-piperidylidene]-6,11-dihydro-5H-benzo-[5,6]cyclohepta-[1,2-b]pyridine], the IC50 in assay [1] (setting [5]) stood at 0.59 µM; in assay [2], 7.4 µM.
Taken in the same sequence, the figures for `CC(=O)SCC(C(=O)N1CCC(=C2c3ccc(Cl)cc3CCc3cccnc32)CC1)c1ccccc1` (stereo not shown) [Example 84] were 0.29 µM and over 9.7 µM.
Consider `O=C(CN1C(=O)c2ccccc2S1(=O)=O)N1CCC(=C2c3ccc(Cl)cc3CCc3cccnc32)CC1` [Example 85], for which the IC50 in assay [1] (setting [5]) is 2 µM; in assay [2], over 37.4 µM.
For `O=C(C1CCCC1)N1CCC(=C2c3ccc(Cl)cc3CCc3cccnc32)CC1` [Example 157], in assay [2], the IC50 came to 4.5 µM.
With `O=C(Cc1ccc[n+]([O-])c1)N1CCN(C2c3ccc(Cl)cc3CCc3cccnc32)CC1` (stereo not shown) [Example 197], the IC50 in assay [3] (Homo sapiens, Fibroblast) is over 50 µM; in assay [1] (setting [6]) it was 1.17 µM; in assay [4] (Homo sapiens), 25 µM.
In the case of `CC(C)(C)OC(=O)NCC(=O)N1CCN(C2c3ccc(Cl)cc3CCc3cccnc32)CC1` (stereo not shown) [Example 208], the IC50 in assay [3] (Homo sapiens, Fibroblast) is over 50 µM; in assay [1] (setting [5]) it was 4.8 µM; in assay [4] (Homo sapiens), over 50 µM.
In the case of `O=C(Cc1ccccc1)NCC(=O)N1CCN(C2c3ccc(Cl)cc3CCc3cccnc32)CC1` (stereo not shown) [Example 209], the IC50 was over 50 µM in assay [3] (Homo sapiens, Fibroblast); 7.92 µM in assay [1] (setting [5]); 25 µM in assay [4] (Homo sapiens).
Take `O=C(Cc1cccc(O)c1)NCC(=O)N1CCN(C2c3ccc(Cl)cc3CCc3cccnc32)CC1` (stereo not shown) [Example 211]: the IC50 in assay [3] (Homo sapiens, Fibroblast) is over 50 µM; in assay [1] (setting [5]), 8.17 µM; in assay [4] (Homo sapiens), 37 µM.
In the case of `O=C(Cc1ccccc1O)NCC(=O)N1CCN(C2c3ccc(Cl)cc3CCc3cccnc32)CC1` (stereo not shown) [Example 212], the IC50 in assay [3] (Homo sapiens, Fibroblast) turned out to be 37 µM; in assay [1] (setting [5]), 7.92 µM; in assay [4] (Homo sapiens), 25 µM.
Taken in the same sequence, the figures for `O=C(CCc1ccccc1)NCC(=O)N1CCN(C2c3ccc(Cl)cc3CCc3cccnc32)CC1` (stereo not shown) [Example 217] were 50 µM, 6.75 µM and 37 µM.
In the case of `O=C(CCc1ccc(O)cc1)NCC(=O)N1CCN(C2c3ccc(Cl)cc3CCc3cccnc32)CC1` (stereo not shown) [Example 218], the IC50 in assay [3] (Homo sapiens, Fibroblast) amounted to 50 µM; in assay [1] (setting [5]) it was 9.92 µM; in assay [4] (Homo sapiens), 37 µM.
Take `O=C(Cc1cccnc1)N1CCC(=C2c3ccc(Cl)cc3CCc3ccc[n+]([O-])c32)CC1` [Example 229]: the IC50 in assay [3] (Homo sapiens, Fibroblast) is over 50 µM; in assay [1] (setting [5]), 4.38 µM; in assay [4] (Homo sapiens), 37 µM.
As for `O=C(Cc1ccc[n+]([O-])c1)N1CCC(C2c3ccc(Cl)cc3CCc3ccc[n+]([O-])c32)CC1` (stereo not shown) [Example 237], the IC50 in assay [3] (Homo sapiens, Fibroblast) was over 50 µM; in assay [4] (Homo sapiens), over 50 µM. Further, at 4 µM the inhibition in assay [1] (at 4 μM) was 18%.
As to `O=C(Nc1cccnc1)N1CCC(=C2c3ccc(Cl)cc3CCc3c(Cl)ccnc32)CC1` [Example 261], the IC50 was found to be 1.3 µM in assay [1] (setting [5]) and 9.1 µM in assay [2].
In the same order, the values of `O=C(Nc1cccnc1)N1CCC(C2c3ccc(Cl)cc3C=Cc3cccnc32)CC1` (stereo not shown) [Example 267] are 1.33 µM and 12.5 µM.
With `O=C(Nc1cccnc1)N1CCC(C2c3ccc(Cl)cc3C=Cc3c(Cl)ccnc32)CC1` (stereo not shown) [Example 274], the IC50 in assay [1] (setting [5]) was 0.91 µM and 1.38 µM; in assay [2], 8 µM.
Consider `CC(C)(C(=O)N1CCC(=C2c3ccc(Cl)cc3C=Cc3cccnc32)CC1)c1cccnc1` [Example 278], for which the IC50 was 0.88 µM in assay [1] (setting [5]) and 2.6 µM in assay [2].
Regarding `O=C(C(=O)N1CCC(=C2c3ccc(Cl)cc3CCc3cccnc32)CC1)c1ccc([N+](=O)[O-])cc1` [Example 295], the results for the IC50 in assay [1] (setting [5]) and in assay [2] were 2.4 µM and 20.8 µM, respectively.
Turning to `CN(C)c1ccc(CC(=O)N2CCC(=C3c4ccc(Cl)cc4CCc4cccnc43)CC2)cc1` [Example 297], the IC50 in assay [3] (Homo sapiens, Fibroblast) was over 50 µM; in assay [1] (setting [5]), 2.71 µM; in assay [4] (Homo sapiens), over 50 µM.
Regarding `CC(C)(C)c1cnc2c(c1)CCc1cc(Cl)ccc1C2=C1CCN(C(=O)Cc2ccncc2)CC1` [Example 305], the figures for the IC50 in assay [3] and in assay [4] were over 50 µM and 25 µM, respectively. The FPT inhibition in assay [1] (at 4 μM) was found to be 40% @4 μM.
As for `O=C(Cc1ccncc1)N1CCC(=C2c3ccc(Cl)cc3C=Cc3cccnc32)CC1` [Example 307], the IC50 in assay [3] was 50 µM; in assay [1] (setting [5]) it was 0.22 µM and 0.14 µM; in assay [4], 12.5 µM.
Consider `O=C(Cc1ccncc1)N1CCC(=C2c3cc(F)ccc3CCc3cccnc32)CC1` [Example 310], for which the values for the IC50 in assay [3], in assay [1] (setting [5]) and in assay [4] were over 50 µM, 3.6 µM and 25 µM, respectively.
As for `O=C(NCc1ccccc1)N1CCC(C2c3ccc(Cl)cc3CCc3cccnc32)CC1` (stereo not shown) [Example 318], the IC50 was 37 µM in assay [3] (Homo sapiens, Fibroblast); 4.1 µM in assay [1] (setting [5]); 37 µM in assay [4] (Homo sapiens).
In the case of `O=C(Cc1ccc(O)c(O)c1)N1CCC(C2c3ccc(Cl)cc3CCc3cccnc32)CC1` (stereo not shown) [Example 321], the IC50 in assay [3] (Homo sapiens, Fibroblast) was over 50 µM; in assay [1] (setting [5]) it was 6 µM; in assay [4] (Homo sapiens), 6.25 µM.
As for `O=C(Cc1cccnc1)N1CCN(C2c3ccc(Cl)cc3CCc3c(Cl)ccnc32)CC1` (stereo not shown) [Example 355], the IC50 in assay [3] (Homo sapiens, Fibroblast) was over 25 µM; in assay [1] (setting [6]) it was 0.88 µM; in assay [4] (Homo sapiens), 8 µM.
As to `Nc1cnc2c(c1)C=Cc1cc(Cl)ccc1C2C1CCN(C(=O)Cc2ccncc2)CC1` (stereo not shown) [Example 402-A], the IC50 in assay [3] (Homo sapiens, Fibroblast) is over 25 µM; in assay [1] (FPT IC50, enzyme inhibition), 0.45 µM and 0.56 µM; in assay [4] (Homo sapiens), 3.1 µM.
Regarding `Nc1cc2c(nc1Br)C(=C1CCN(C(=O)Cc3ccncc3)CC1)c1ccc(Cl)cc1CC2` [Example 405], the IC50 in assay [3] (Homo sapiens, Fibroblast) was over 25 µM; in assay [1] (setting [7]), 1.3 µM; in assay [4] (Homo sapiens), 12.5 µM.
For `CC(C)(C(=O)N1CCC(=C2c3ccc(Cl)cc3CCc3cccnc32)CC1)c1cc[n+]([O-])cc1` [Example 411-E], the IC50 is over 25 µM in assay [3] (Homo sapiens, Fibroblast); 1.14 µM in assay [1] (setting [7]); over 25 µM in assay [4] (Homo sapiens).
For `O=C(Cc1cc[n+]([O-])cc1)N1CCN(C2c3ccc(Cl)cc3CCc3cccnc32)CC1` (stereo not shown) [Example 425-B], the IC50 was over 25 µM in assay [3] (Homo sapiens, Fibroblast); 0.74 µM in assay [1] (setting [7]); 12.5 µM in assay [4] (Homo sapiens).
In the case of `O=C(Cc1cc[n+]([O-])cc1)N1CCN(C2c3ccc(Cl)cc3CCc3cc(Br)cnc32)CC1` (stereo not shown) [Example 425-H], the IC50 in assay [3] (Homo sapiens, Fibroblast) was over 25 µM; in assay [1] (FPT IC50, enzyme inhibition) it was 0.059 µM and 0.049 µM and 0.075 µM; in assay [4] (Homo sapiens), under 1.6 µM.
`O=C(Cc1ccc[n+]([O-])c1)N1CCN(C2c3ccc(Cl)cc3CCc3cc(Br)cnc32)CC1` (stereo not shown) [Example 425-K]: the IC50 in assay [3] (Homo sapiens, Fibroblast) was over 25 µM; in assay [1] (FPT IC50, enzyme inhibition), 0.4 µM and 0.41 µM; in assay [4] (Homo sapiens), 6.25 µM.
In the case of `CC(C)(C(=O)N1CCN(C2c3ccc(Cl)cc3CCc3cccnc32)CC1)c1ccncc1` (stereo not shown) [Example 425], the IC50 in assay [3] (Homo sapiens, Fibroblast) was over 25 µM; in assay [1] (setting [7]), 1.74 µM; in assay [4] (Homo sapiens), 12.5 µM.
